Data taken from article PMC10051705, “Leishmanicidal Activity of Guanidine Derivatives against Leishmania infantum” (Tropical Medicine and Infectious Disease, 2023).

Columns and labels:
human red blood cells = assay: red blood cell lysis assay; type: cell-based; conditions: 1 h, 37 °C
Description: The hemolytic activities of guanidine compounds were measured using human red blood cells from healthy adults (n = 3) according to methods previously described. Briefly, 80 µL of a 5% erythrocyte/phosphate-buffered saline (PBS) suspension was mixed with 20 µL of LQOFG-2, LQOFG-6, LQOFG-7, (1000 to 7.8 µM), and AmB (100 to 0.78 µM). After incubation at 37 °C for 1 h, 200 µL of PBS (1.5 mM KH2PO4, 8.1 mM Na2HPO4, 136.9 mM NaCl, and 2.6 mM KCl, pH 7.2) was added to stop the hemolysis process, and the samples were centrifuged for 10 min at 1000× g. The supernatants were collected, and the extent of hemolysis was measured spectrophotometrically at 540 nm. The hemolysis percentage was determined as [(Abssam − Abscon)/(Abstot − Abscon) × 100], where Abssam is the absorbance of the sample, Abscon is the absorbance of the blank control (without drugs), and Abstot is the absorbance of total hemolysis (replacing the sample solution with an equal volume of ultrapure water (Direct-Q UV®, Guyancourt, France)).

monocytes in PBMCs = assay: nitrite assay (Griess reaction) in PBMC/monocytes infected or not with L. infantum; type: cell-based, human; conditions: for nitrite production: compound at 1× EC50, 24 h
Description: To perform the nitrite assay, PBMCs were obtained from five healthy volunteers (3 males, mean age 28.67 ± 2.96; and 2 females, mean age 28.50 ± 0.5) from João Pessoa, PB Brazil. Briefly, peripheral blood was diluted 1:1 with phosphate-buffered saline (PBS) and slowly layered over using Ficoll® Paque PLUS (GE Healthcare, Waukesha, WI, USA). Tubes were centrifuged at 400× g for 40 min at 20 °C. After centrifugation, PBMCs were harvested, washed three times with PBS, and resuspended in RPMI medium supplemented with antibiotics (penicillin 200 U/mL and streptomycin 0.1 mg/mL), 1 mM l-glutamine, and 10% inactivated human serum. Cell viability was assessed using a trypan blue dye exclusion assay. Cells were counted using a hemocytometer.
Promastigotes were prepared as previously described. Briefly, to confirm the infection, the L. infantum promastigotes were labeled with carboxyfluorescein diacetate succinimidyl ester (CFSE) (CellTrace ™ CFSE Cell Proliferation Kit; Eugene, OR, USA). The suspension was incubated for 15 min at 5% CO2, 37 °C, and washed three times with PBS containing 10% inactivated FBS producing CFSE-labeled L. infantum, which was added to PBMCs. The infection ratio was set at 1:10 (monocyte: L. infantum) for 3 h. After the infection, cells were washed three times with PBS supplemented with 10% FBS.
The plates were incubated for 24 h in a 5% CO2 incubator at 37 °C. The plates were centrifuged at 200× g for 8 min at 4 °C, and the supernatant was collected to measure reactive nitrogen production. CD14 surface antibody (PERCP-Cy5.5; clone MΦP9) was used for monocyte labeling (Figure S1). After adding the antibody, the plate was incubated at 4 °C for 15 min, protected from light. The cells were washed with ice-cold PBS buffer. The plate was centrifuged at 200× g again for 10 min at 4 °C. The supernatant was removed, the cells were resuspended in 100 µL of PBS buffer and 100 µL of 4% formaldehyde solution, then read on a flow cytometer (BD FACSCanto II, BD Biosciences, San Jose, CA, USA). FlowJo v.10.8.1 software was used to analyze the raw data. After obtaining PBMC, the cells were plated and incubated with LQOFG-7 and AmB at a concentration of 1× the EC50 value, with media or lipopolysaccharide (LPS) stimulus (lipopolysaccharide derived from Escherichia coli, Sigma-Aldrich O111:B4) at 100 ng/mL [26, 27, 28]. The culture supernatants from those infected and non-infected were evaluated for the stable end-product of reactive nitrogen species (NO, nitrates, and nitrites) using the Griess reaction, according to the Cayman Chemical instruction manual (Cayman Chemical, Ann Arbor, MI, USA). The nitrite level was determined by measuring the absorbance at a wavelength of 540 nm using a microplate reader (BioTek-ELx800).

[1] = system: L. infantum promastigotes; assay: apoptosis/necrosis profiling, annexin V/PI staining, promastigotes; type: cell-based, Leishmania infantum
Description: To evaluate both apoptosis and necrosis, promastigote forms of L. infantum in the log phase of growth were incubated at several concentrations based on the IC50 values of LQOFG-2 (6.35; 12.7, 25.4, and 50.8 µM) LQOFG-6 (12.2, 24.4, 48.8 and 97.6 µM), and LQOFG-7 (11.65, 23.3, 46.6 and 93.2 µM), and AmB (1.5 and 6 µM) was used as the positive control. The plates were incubated for 24 h at 26 °C ± 1 °C in a B.O.D. incubator. After incubation, the promastigotes were washed three times in cold PBS, resuspended in binding buffer (10-mM HEPES, 140-mM NaCl, and 2.5-mM CaCl2, pH 7.4), and stained using a FITC Annexin V/Dead Cell Apoptosis Kit (BD Biosciences, San Jose, CA, USA) according to the manufacturer’s instructions. The stained cells were diluted and suspended in an Annexin V binding buffer (BD Biosciences, San Jose, CA, USA). Annexin V-FITC/propidium iodide (PI)-stained cells were analyzed using a BD FACSCanto II flow cytometer (BD Biosciences, San Jose, CA, USA). The raw data were analyzed using FlowJo 10.0.7 software (TreeStar Inc., Ashland, OR, USA).

[2] = system: L. infantum axenic amastigotes; assay: axenic amastigote inhibition assay (MTT); type: cell-based; conditions: Leishmania infantum, 24 h; for EC50: 37 °C, pH 5.5, MTT

SMILES	HC50, toxicity to red blood cells (human red blood cells)	nitrite production (monocytes in PBMCs; monocytes infected with L. infantum, LPS-activated (100 ng/mL))	increase in nitrite production (in words) (monocytes in PBMCs; monocytes infected with L. infantum, treatment at EC50)	% cells, Early Apoptosis (AV+, PI−) ([1]; 1× IC50, 24 h)	% cells, Late Apoptosis (AV+, PI+) ([1]; 1× IC50, 24 h)	% cells, Necrosis (AV−, PI+) ([1]; 1× IC50, 24 h)	% cells, Early Apoptosis (AV+, PI−) ([1]; 4× IC50, 24 h)	% cells, Late Apoptosis (AV+, PI+) ([1]; 4× IC50, 24 h)	% cells, Necrosis (AV−, PI+) ([1]; 4× IC50, 24 h)	EC50 [2]	nitrite production (monocytes in PBMCs; monocytes infected with L. infantum, not LPS-activated, untreated infected 0.367 ± 1.48 µM)	nitrite production (monocytes in PBMCs; uninfected human monocytes (PBMC), untreated control 3.81 ± 1.36 µM)	% cells, Early Apoptosis (AV+, PI−) ([1]; 0.5× IC50, 24 h)	% cells, Late Apoptosis (AV+, PI+) ([1]; 0.5× IC50, 24 h)	% cells, Necrosis (AV−, PI+) ([1]; 0.5× IC50, 24 h)	% cells, Early Apoptosis (AV+, PI−) ([1]; 2× IC50, 24 h)	% cells, Late Apoptosis (AV+, PI+) ([1]; 2× IC50, 24 h)	inhibition at 31.2 µM ([2]; at 31.2 µM, read-out: inhibition of axenic amastigotes compared to the control (untreated))
C[C@@H]1[C@H](O)[C@@H](C)/C=C/C=C/C=C/C=C/C=C/C=C/C=C/[C@H](O[C@@H]2O[C@H](C)[C@@H](O)[C@H](N)[C@@H]2O)C[C@@H]2O[C@](O)(C[C@@H](O)C[C@@H](O)[C@H](O)CC[C@@H](O)C[C@@H](O)CC(=O)O[C@H]1C)C[C@H](O)[C@H]2C(=O)O [Amphotericin B, reference compound]	7.10 ± 2.09 µM	13.6 ± 4.25 µM	no significant increase	0.67 ± 0.27%	4.30 ± 0.28%	7.64 ± 1.17%	0.27 ± 0.09%	65.83 ± 1.85%	33.10 ± 1.90%	0.3 µM	–	–	–	–	–	–	–	–
O=C(/N=C(/NCc1ccccc1)Nc1ccc(I)cc1)c1ccccc1 [LQOFG-7, (Z)-N-((benzylamine)((4-iodophenyl)amino)methylene)benzamide]	>1000 µM	–	–	0.77 ± 0.04%	0.41 ± 0.08%	1.19 ± 0.12%	0.39 ± 0.08%	0.18 ± 0.07%	–	18.6 ± 1.23 µM	13.5 ± 1.30 µM	10.5 ± 3.58 µM	0.28 ± 0.05%	0.47 ± 0.07%	0.87 ± 0.17%	0.76 ± 0.10%	0.26 ± 0.09%	58%
